In US20050214894A1, “High throughput assay” (priority 2004, published 2005):
pIC50: −log10 of the molar value.

Assays:
PHD2 = target: T1, PHD2 (Homo sapiens, UniProt Q9GZT9); assay: PHD2 activity assay: 2-OG consumption detected by OPD derivatisation and fluorescence; type: biochemical; settings: inhibitor 1 mM; Tris and HEPES buffers; FIG. 9
T1 construct: a form of the enzyme that has had the first 180 amino acids (including those containing a MYND finger motif) removed; made in house; host or cells: Escherichia coli BL21(DE3)
T1 sequence (Q9GZT9 with tags, fused parts or gaps): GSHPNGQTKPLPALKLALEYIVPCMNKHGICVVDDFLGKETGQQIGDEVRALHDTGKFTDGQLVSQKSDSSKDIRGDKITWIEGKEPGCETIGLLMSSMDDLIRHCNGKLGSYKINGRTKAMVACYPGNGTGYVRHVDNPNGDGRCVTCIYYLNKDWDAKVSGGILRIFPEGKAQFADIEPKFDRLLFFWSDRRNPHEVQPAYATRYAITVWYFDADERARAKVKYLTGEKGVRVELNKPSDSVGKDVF
From the text: The PHD2 used was a form of the enzyme that has had the first 180 amino acids (including those containing a MYND finger motif) removed. Thus the enzyme, after removal of the affinity tag, has a N-terminus of […]; we have found this form of PHD2 to be preferred in the in vitro assays. The enzyme was expressed from the pET28a(+) vector (Novagen), with the gene cloned between NheI and BamHI restriction sites. Growth and induction were using standard techniques, in that the pET28a(+) vector was transformed into BL21(DE3) Escherichia coli cells, and grown in 2TY medium at 37° C. until the absorbance of the solution of 600 nm was 0.8. IPTG was added to a final concentration of 0.5 mM and growth was continued for three hours. Affinity purification using Novagen His-Bind resin was as per the manufacturers instructions.
The assay was carried out as for the FIH, but the buffer used was 50 mM HEPES pH7.0.

FIH = target: T2, FIH (Homo sapiens, UniProt Q9NWT6); assay: FIH activity assay: 2-OG consumption detected by OPD derivatisation and fluorescence; type: biochemical; settings: for effect on 2-OG consumption by FIH: inhibitor 1 mM, in the presence of prime substrate and 2-OG, FIG. 7
T2 construct: FIH and GST-tagged HIF-1α 786-826 were prepared as described previously; made in house
T2 sequence (Q9NWT6 whole entry): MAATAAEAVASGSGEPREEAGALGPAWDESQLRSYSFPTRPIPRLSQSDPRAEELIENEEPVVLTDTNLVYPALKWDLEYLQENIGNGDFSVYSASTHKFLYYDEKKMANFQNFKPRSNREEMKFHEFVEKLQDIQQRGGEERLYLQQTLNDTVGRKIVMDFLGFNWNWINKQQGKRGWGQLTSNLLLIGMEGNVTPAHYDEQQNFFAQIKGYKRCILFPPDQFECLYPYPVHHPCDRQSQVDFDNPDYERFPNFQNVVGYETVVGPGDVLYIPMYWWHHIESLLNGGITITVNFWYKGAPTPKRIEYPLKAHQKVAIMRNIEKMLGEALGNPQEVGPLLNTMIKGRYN
Method: The assay of FIH activity was carried out by mixing 1 mM DTT, 0.6 mg/ml catalase, 2-OG, substrate and 50 mM Tris/HCl pH 7.5 to a final volume of 88 μl warming to 37° C. for 5 minutes in a water bath. Simultaneously, the enzyme and iron (prepared as 500 mM stock in 20 mM HCl, and diluted with water) were mixed at room temperature for 3 minutes. Reaction was initiated by addition of 12 μl of enzyme/iron mix to the substrate/cofactor mix. The reaction was stopped by addition of 200 μl 0.5M HCl; derivatisation was then achieved by the addition of 100 μl 10 mg/ml OPD in 0.5M HCl, and heating for 10 minutes at 95° C. in a heating block.

| inhibition of PHD2 (PHD2) | pIC50 (FIH) | effect on 2-OG consumption by FIH (FIH) | SMILES |
| --- | --- | --- | --- |
| little, if any, inhibition of PHD2 |  |  | O=C(O)C(=O)N[C@H](Cc1ccccc1)C(=O)O [NOFD, N-oxalyl-D-phenylalanine] |
|  | 4.40 | eliminated the 2-OG consumption by FIH | O=C(O)CNC(=O)C(=O)O [N-oxalylglycine] |
|  |  | eliminated the 2-OG consumption by FIH | O=C(O)c1c[nH]c2c(ccc3cccnc32)c1=O [FG0041] |
